Assay results as given in patent US20220153746A1, “NITROGEN OXIDE-DONATING PDE-5 AND/OR PDE-6 INHIBITOR COMPOUNDS, AND USES THEREOF” (ILDONG PHARMACEUTICAL CO., LTD., priority 2020, published 2022).
Like-named read-outs stand apart in the source and are kept apart here.

Assay: TD Phase (Groups 1 and 3): plasma and ocular tissue concentrations and pharmacokinetics of Compound 18 and its metabolite Compound 4 after once daily ocular instillation of Compound 18 nanosuspension for 7 days
Format: in vivo, New Zealand white rabbits
Details: for Cmax / Tmax / half-life / AUC(0-t): topical or ocular; for AUC(0-t): read-out: AUC0-8; for Metabolite/parent AUC ratio (Compound 4 vs Compound 18): TD phase
Text: This example illustrates the procedures and results for the levels of Compound 18 and its metabolite Compound 4 in plasma and ocular tissues of normotensive rabbits following ocular instillation of Compound 18 once daily for 7 consecutive days.
Twenty five (25) male New Zealand white rabbits were divided into 5 groups of varying amounts of animals per group.
The Test article, Compound 18 was formulated as a 2% nanosuspension in DI water containing 0.2% PS80 (polyoxyethylenesorbitan, monooleate (Tween 80)) and 0.4% HPMC (hydroxypropylmethylcellulose) at pH 6.77. Referred to herein as “Compound 18 nanosuspension.”
The study consisted of three groups (Groups 1-3) of 19 male rabbits (NZW) that underwent once daily morning ocular installation (1 eyedrop) for 7 consecutive days (Day 0-6). Groups 4-5 each consisted of 3 male rabbits (NZW) that were not dosed.
Blood samples (1 mL) were collected from the jugular vein at the intervals set out below for each group. The samples were then inverted several times following collection and held on wet ice until centrifuged. Samples were centrifuged within 60 minutes of collection under refrigeration (set at 5° C. for 10 minutes at 2000 g.
Group 1 (Pilot Study, terminal blood collection): blood was collected from 3 animals at 1 hour post day 7 dose of Compound 18 nanosuspension.
Group 3 (TD Phase, terminal blood collection): blood was collected from 3 animals at 0.5 hour, 3 animals at 2 hours, 3 animals at 4 hours, and 3 animals at 8 hours post day 7 dose of Compound 18 nanosuspension.
(§1) Group 1 (Pilot Study): 3 animals were terminated at 1 hour post Day 7 dose of Compound 18 nanosuspension. Following blood collection and termination, ocular tissues (aqueous humor, vitreous humor, cornea, iris/ciliary body, lens, optic nerve, retina, sclera/choroid, and trabecular meshwork) were collected from each animal and the tissue weights were recorded. Note: sclera and choroid were collected together. Iris and ciliary body were collected together.
as §1, with “3 (TD Phase):” for “1 (Pilot Study):”, “0.5 hour, 3 animals at 2 hours, 3 animals at 4 hours, and 3 animals at 8 hours” for “1 hour”
Plasma and tissue samples from treated animals (Groups 1-3) were analyzed for Compound 18 and its metabolite Compound 4 concentrations by LC-MS/MS.
Pharmacokinetic analysis was conducted using WinNonlin Version 6.2.1 (Pharsight, Mountain View, Calif.), operating as a validated software system. Noncompartmental analysis was conducted using the extravascular administration model for ocular instillation dosing.
The peak plasma and ocular tissue concentration, time to achieve peak plasma and ocular tissue concentration, half-life, and area under the plasma and ocular tissue concentration-time curve (Cmax, Tmax, T1/2, and AUC) were calculated from the TD phase combined with the pilot study mean animal plasma and ocular tissue concentrations for each sampling time/dose group for Compound 18 and its metabolite Compound 4.
BA Assay: Quantitation Range 0.05 to 100 ng/mL for Compound 18, 0.15 to 100 ng/mL for Compound 4.
3. Pipet 50 μL of each type of pre-spiked ocular tissue samples (AH/VH) for QC samples, 50 μL of incurred aqueous humor, and vitreous humor sample (if applicable) into a 96 well plate.
Ocular Tissues Homogenate Preparation: Incurred rabbit ocular tissues were weighed in Genogrinder tubes (plastic tubes with small beads) at the time of removal from the animal and stored frozen (<−70° C.) until analysis. The rabbit incurred ocular tissues were thawed on wet ice. […]

[1] = male, New Zealand white, rabbit, 0.8 mg/kg/day, optic nerve, Day 7, from mean concentrations
[2] = male, New Zealand white, rabbit, 0.8 mg/kg/day, plasma, Day 7, from mean concentrations
[3] = male, New Zealand white, rabbit, 0.8 mg/kg/day, retina, Day 7, from mean concentrations
[4] = male, New Zealand white, rabbit, 0.8 mg/kg/day, sclera/choroid, Day 7, from mean concentrations
[5] = male, New Zealand white, rabbit, 0.8 mg/kg/day, trabecular meshwork, Day 7, from mean concentrations
[6] = male, New Zealand white, rabbit, 0.8 mg/kg/day, vitreous humor, Day 7, from mean concentrations
[7] = male, New Zealand white, rabbit, Aqueous Humor, Day 7, Compound 18 0.8 mg/kg ocular instillation once daily, Groups 1 and 3
[8] = male, New Zealand white, rabbit, Cornea, Day 7, Compound 18 0.8 mg/kg ocular instillation once daily, Groups 1 and 3
[9] = male, New Zealand white, rabbit, Iris/Ciliary Body, Day 7, Compound 18 0.8 mg/kg ocular instillation once daily, Groups 1 and 3
[10] = male, New Zealand white, rabbit, Lens, Day 7, Compound 18 0.8 mg/kg ocular instillation once daily, Groups 1 and 3
[11] = male, New Zealand white, rabbit, Optic Nerve, Day 7, Compound 18 0.8 mg/kg ocular instillation once daily, Groups 1 and 3
[12] = male, New Zealand white, rabbit, Plasma, Day 7, Compound 18 0.8 mg/kg ocular instillation once daily, Groups 1 and 3
[13] = male, New Zealand white, rabbit, Retina, Day 7, Compound 18 0.8 mg/kg ocular instillation once daily, Groups 1 and 3
[14] = male, New Zealand white, rabbit, Sclera/Choroid, Day 7, Compound 18 0.8 mg/kg ocular instillation once daily, Groups 1 and 3
[15] = male, New Zealand white, rabbit, Trabecular Meshwork, Day 7, Compound 18 0.8 mg/kg ocular instillation once daily, Groups 1 and 3
[16] = male, New Zealand white, rabbit, Vitreous Humor, Day 7, Compound 18 0.8 mg/kg ocular instillation once daily, Groups 1 and 3

CCCc1nn(C)c2c(=O)[nH]c(-c3cc(S(=O)(=O)N4CC(CCCO)C4)ccc3OCC)nc12 [Compound 4, 5-(2-ethoxy-5-((3-(3-hydroxypropyl)azetidin-1-yl)sulfonyl)phenyl)-1-methyl-3-propyl-1,6-dihydro-7H-pyrazolo[4,3-d]pyrimidin-7-one]
Cmax [1]: 40.2 ng/g
Tmax [1]: 1 h
half-life [1]: 2.93 h
Cmax [2]: 1.02 ng/mL
Tmax [2]: 0.5 h
half-life [2]: 0.958 h
AUC(0-t) [2]: 1.57 ng·h/mL
Cmax [3]: 50.9 ng/g
Tmax [3]: 2 h
half-life [3]: 1.93 h
Cmax [4]: 303 ng/g
Tmax [4]: 4 h
half-life [4]: 1.74 h
Cmax [5]: 204 ng/g
Tmax [5]: 1 h
half-life [5]: 2.2 h
Cmax [6]: 2.32 ng/mL
Tmax [6]: 1 h
half-life [6]: 1.72 h
AUC(0-t) [6]: 9.9 ng·h/mL
Cmax [7]: 124 ng/mL
Tmax [7]: 1 h
half-life [7]: 1.95 h
AUC(0-t) [7]: 314 ng·h/mL
Cmax [8]: 3600 ng/g
Tmax [8]: 1 h
half-life [8]: 2.63 h
Cmax [9]: 980 ng/g
Tmax [9]: 1 h
half-life [9]: 2.11 h
Cmax [10]: 18.1 ng/g
Tmax [10]: 1 h
half-life [10]: 2.25 h
Cmax [11]: 40.2 ng/g
Tmax [11]: 1 h
half-life [11]: 2.93 h
Cmax [12]: 1.02 ng/mL
Tmax [12]: 0.5 h
half-life [12]: 0.958 h
AUC(0-t) [12]: 1.57 ng·h/mL
Cmax [13]: 50.9 ng/g
Tmax [13]: 2 h
half-life [13]: 1.93 h
Cmax [14]: 303 ng/g
Tmax [14]: 4 h
half-life [14]: 1.74 h
Cmax [15]: 204 ng/g
Tmax [15]: 1 h
half-life [15]: 2.2 h
Cmax [16]: 2.32 ng/mL
Tmax [16]: 1 h
half-life [16]: 1.72 h
AUC(0-t) [16]: 9.9 ng·h/mL
concentration at 8 h (male, New Zealand white, rabbit, trabecular meshwork, other: ocular instillation, 0.8 mg/kg/day, TD Phase, Group 3, 8 h, Mean, read-out: Final Compound 4 Trabecular Meshwork Conc.): 13.9 ng/g
AUC0-8 (optic nerve, Day 7, from mean concentrations): 159 ng·h/g
Metabolite/parent AUC ratio (Compound 4 vs Compound 18) (optic nerve): 0.133
AUC0-8 (retina, Day 7, from mean concentrations): 213 ng·h/g
Metabolite/parent AUC ratio (Compound 4 vs Compound 18) (retina): 1.34
AUC0-8 (sclera/choroid, Day 7, from mean concentrations): 1494 ng·h/g
Metabolite/parent AUC ratio (Compound 4 vs Compound 18) (sclera/choroid): 1.32
AUC0-8 (trabecular meshwork, Day 7, from mean concentrations): 533 ng·h/g
Metabolite/parent AUC ratio (Compound 4 vs Compound 18) (trabecular meshwork): 18.0
